These results are taken from US7261901B2, “Vaccine and compositions for the prevention and treatment of neisserial infections” (University of Iowa Research Foundation, priority 2001, dated 2007).

In assay [1] the test system is primary ectocervical cells. Kind of assay: Gentamycin-resistance invasion assay of N. gonorrhoeae 1291 with inhibitors of cytoskeletal motility and protein synthesis, ectocervical cells. Conditions: for effect on bacterial entry / gonococcal invasion: both cell types (endo- and ectocervical). Format: cell-based, human. The procedure:
Invasion Assays in the Presence of Inhibitors of Cytoskeletal Motility and Protein Synthesis: Cervical cells were passed to 12 mm collagen-coated coverslips as outlined above. Prior to infection with N. gonorrhoeae 1291 wild-type cells, primary cell cultures were left untreated, or they were pre-incubated with 300 nM wortmannin (Sigma), 1 μM cytochalasin D (Sigma), or 400 mM ethylene glycol bis-(2-aminoethyl ether)-N,N, N′, N′ tetraacetic acid ((EGTA) Amresco, Solon, Ohio) for 2 h, 30 min, and 30 min, respectively, or they were pretreated with 100 µg/ml nocodazole (Calbiochem-Novabiochem Corp., La Jolla, Calif.) for 1 h at 4° C. followed by a 30 min incubation at 37° C. The requirement for de novo protein synthesis, either by the bacteria or by the primary cervical cells, was tested by pretreatment (30 min, 37° C.) of the bacterial cultures or cervical cell monolayers with 4 μg/ml chloramphenicol (Sigma) or 25 μM cycloheximide (Calbiochem-Novabiochem Corp.), respectively. All chemical reagents used were maintained in the infection medium throughout the course of the infection. […] Infection was allowed to progress at 37° C., 5% CO2, for 1.5 h after which the medium was removed, the cells were rinsed with PBS, and then incubated with KGM-2 containing 100 μg/ml gentamycin to kill extracellular bacteria. Post incubation the cervical cells were lysed with 0.5% saponin to release invasive bacteria. Percent invasion was determined as a function of the original inoculum and the number of colonies formed with subsequent plating of the cellular lysate. A Kruskal-Wallace ANOVA was used to determine the statistical significance of the calculated percent invasion for each of the cytoskeletal motility inhibitors used with respect to the untreated, infected cell cultures.

Assay [2] deals with Ectocervical Cells. Briefly: Association and invasion (gentimicin-resistance) assays, primary ectocervical (pex) cells. Format: cell-based, human. As for the experimental part:
8. N. gonorrhoeae Attachment to and Invasion of Primary, Human, Cervical Cells. Primary cervical cell monolayers were infected with wild-type or PLD mutant gonococci as outlined above. Variable concentrations of Streptomyces spp. PLD (SsPLD) (Sigma), PMA, or 4-α phorbol were included in association (adherence and invasion) or invasion assays, as noted. Cervical cells were preincubated (30 minutes, 37° C.) with 200 nM PMA or 4-α phorbol before the addition of gonococci. 10 units ml^−1 SsPLD was added simultaneously with gonococci. Alternatively, where noted, cervical cell monolayers were pre-incubated (30 minutes, 37° C.) with pervanadate, which was made by mixing 100 μM ortho-sodium vanadate in 3 mM hydrogen peroxide. In separate assays, infection supernatants were collected from wild-type or PLD mutant-infected cervical cell monolayers, gonococci were removed by filtration through a 0.22 μm syringe filter (i.e., wild-type or mutant primed supernatants) and were added to association and/or invasion assays, as noted. The ability of gonococci to adhere to and/or invade pex and pen cells was quantitatively determined using standard gentimicin-resistance assays, performed as described previously (Edwards et al., 2000), and in which chemical or protein additives were included or excluded from the invasion assay as described above. The total association (i.e., adherence and invasion) of gonococci with pex and pen cells was quantitated by the omission of gentimicin from the above described invasion assay. Percent invasion of N. gonorrhoeae 1291 or 1291ΔPLDin the presence or absence of experimental additives was determined as a function of the original inoculum and the number of colonies formed with subsequent plating of the cellular lysate. A Kruskal-Wallis non-parametric analysis of variance was used to determine the statistical significance of the association and invasion assays described above.
N. gonorrhoeae Attachment to and Invasion of Primary, Human, Cervical Cells. Primary cervical cell monolayers were infected with wild-type or PLD mutant gonococci as outlined above. Variable concentrations of PtC (Sigma), ethanol, 2-butanol, or Streptomyces spp. PLD (SsPLD) (Sigma) were included in association (adherence and invasion) or invasion assays, as noted. PtC, ethanol, 2-butanol, or 10 units ml^−1 SsPLD were added simultaneously with gonococci. In separate assays, infection supernatants were collected from wild-type or PLD mutant-infected cervical cell monolayers, gonococci were removed by filtration through a 0.22 μm syringe filter (to yield primed wild-type or mutant supernatants), which were then added to association and/or invasion assays, as noted. The ability of gonococci to adhere to and/or invade pex and pen cells was quantitatively determined using standard gentimicin-resistance assays, performed as described previously (Edwards et al., 2000) and in which chemical or protein additives were included or excluded from the invasion assay as described above. The total association (i.e., adherence and invasion) of gonococci with pex and pen cells was quantitated by the omission of gentimicin from the above described invasion assay. Percent invasion of N. gonorrhoeae 1291 or 1291ΔPLD in the presence or absence of experimental additives was determined as a function of the original inoculum and the number of colonies formed with subsequent plating of the cellular lysate. Inhibition of gonococcal attachment and/or invasion by exogenous PtC, ethanol, or 2-butanol was determined as a normalized function of the ability of gonococci to attach to and/or invade primary cervical cells in the absence of the competimer inhibitor. A Kruskal-Wallis non-parametric analysis of variance was used to determine the statistical significance of the association and invasion assays described above.

Assay [3] deals with primary human ectocervical cells. Briefly: rI-domain inhibition of adherence and invasion of primary ectocervical cells by N. gonorrhoeae 1291. The class given is cell-based. As for the experimental part:
Studies were performed evaluating the ability of the rI-domain to inhibit adherence and invasion of primary human ectocervical cells by Neisseria gonorrhoeae. The cervical cells were infected with 107 N. gonorrhoeae strain 1291. Recombinant I-domain is a potent inhibitor of ectocervical cell association by Neisseria gonorrhoeae. As little as 1 ng of rI-domain gives over 90% inhibition of invasion. With decreasing amounts of rI-domain the inhibition decreases in a dose dependent fashion.

Where [4] appears, read: PtC 10.0 µg/ml, wild-type gonococci.

Consider `O=C(N[C@H](CO)[C@H](O)c1ccc([N+](=O)[O-])cc1)C(Cl)Cl` [Chloramphenicol, chloramphenicol], for which the “effect on bacterial entry / gonococcal invasion” value in assay [1] is “did not inhibit gonococcal invasion”.

On to `C[C@@H]1C[C@@H]([C@H](O)CC2CC(=O)NC(=O)C2)C(=O)[C@@H](C)C1` [Cycloheximide, cycloheximide], for which the “effect on bacterial entry / gonococcal invasion” value in assay [1] is on record as “did not inhibit gonococcal invasion”.

`O=C(O)CN(CCOCCOCCN(CC(=O)O)CC(=O)O)CC(=O)O` [EGTA, ethylene glycol bis-(2-aminoethyl ether)-N,N, N′, N′ tetraacetic acid]: in assay [1], the “effect on bacterial entry / gonococcal invasion” value is reported as “prohibited bacterial entry”.

`COC(=O)Nc1nc2ccc(C(=O)c3cccs3)cc2[nH]1` [Nocodazole, nocodazole]: in assay [1] (pretreatment of primary cervical cell monolayers), the “decrease in gonococcal invasion” value is listed as roughly 67%.

For the molecule phosphatidylcholine [PtC], the “Inhibition (%)” value in assay [2] (setting [4]) is on record as 98.7786 (0.08) %; in assay [2] (PtC 0.01 g/ml), 68.8105 (2.15) %; in assay [2] (PtC 0.1 g/ml), 87.3571 (0.28) %; in assay [2] (PtC 1.0 g/ml), 92.4681 (0.38) %. The “Invasion (%)” value is 0.0331 (0.01) % in assay [2] (setting [4]), 0.8379 (0.03) % in assay [2] (PtC 0.01 g/ml), 0.3418 (0.01) % in assay [2] (PtC 0.1 g/ml) and 0.2038 (0.01) % in assay [2] (PtC 1.0 g/ml).

B1: rI domain: recombinant murine I-domain of CR3 alpha-subunit, 23 kilodalton peptide with Myc and His domains (SEQ ID NO: 11) (protein, listed as Mus musculus)
chain: FPQQESDIVFLIDGSGSINNIDFQKMKEFVSTVMEQFKKSKTLFSLMQYSDEFRIHFTFNDFKRNPSPRSHVSPIKQLNGRTKTASGIRKVVRELFHKTNGARENAAKILVVITDGEKFGDPLDYKDVIPEADRAGVIRYVIGVGNAFNKPQSRRELDTIASKPAGEHVFQVDNFEALNTIQNQLQEKIFAIPAAASFL
modifications: Myc and His tags
As to B1, the “% inhibition of invasion of primary exocervical cells” value in assay [3] (rI domain 1 pg/ml) was 17.4%; in assay [3] (rI domain 10 pg/ml), 56.3%; in assay [3] (rI domain 100 pg/ml), 77.5%; in assay [3] (rI domain 1 ng/ml), 92.1%; in assay [3] (rI domain 1 ng/ml, listed as rI-domain) it was “over 90%”; in assay [3] (rI domain 10 ng/ml) it was 94.6%. The “% inhibition of invasion of primary exocervical cells” value in assay [3] (rI domain 100 ng/ml) was 96.8%; in assay [3] (rI domain 1 μg/ml, N. gonorrhoeae 1291), 98.56%.
